Molecules are shown by their SMILES. ≈ marks a conversion by molar mass, not a printed value. A value given as a limit tells only on which side of the number the result lay.

The target in data set [1] is C-C chemokine receptor type 2 (Homo sapiens, UniProt P41597). The experiment in a line: Displacement of [125I]-MCP1 from human CCR2 receptor in THP1 cells after 2 hrs by scintillation counting. The format is cell-based, THP-1.
In data set [2] the target is Voltage-gated inwardly rectifying potassium channel KCNH2 (Homo sapiens, UniProt Q12809).
Description: Displacement of [3H]-astemizole from human ERG in HEK293 cells after 1 hrs by scintillation counting
For another data set, the target named is hERG (KCNH2) (Homo sapiens, UniProt Q12809). The experiment in a line: in vitro. The settings on record: HEK293 cells that express hERG.
Data set [3] can be described thus: Kinetic solubility of the compound at pH 2. The format is physicochemical. Particulars: buffer, read-out: Kinetic_solubility.
A short description of data set [4]: Apparent permeability of the compound from apical to basolateral side in human Caco2 cell membrane. The settings on record: Caco-2. It counts as ADME, cell-based. (In general: Caco-2 cells form a polarised layer with tight junctions and transporters.)
Data set [5] can be described thus: Apparent permeability of the compound from basolateral to apical side in human Caco2 cell membrane. It counts as ADME, cell-based. The settings on record: Caco-2.
The nature of data set [6]: Efflux ratio of permeability from basolateral to apical side over apical to basolateral side in human Caco2 cell membrane. The format is ADME, cell-based. Particulars: Caco-2.

Chain of Voltage-gated inwardly rectifying potassium channel KCNH2 (Q12809 whole entry): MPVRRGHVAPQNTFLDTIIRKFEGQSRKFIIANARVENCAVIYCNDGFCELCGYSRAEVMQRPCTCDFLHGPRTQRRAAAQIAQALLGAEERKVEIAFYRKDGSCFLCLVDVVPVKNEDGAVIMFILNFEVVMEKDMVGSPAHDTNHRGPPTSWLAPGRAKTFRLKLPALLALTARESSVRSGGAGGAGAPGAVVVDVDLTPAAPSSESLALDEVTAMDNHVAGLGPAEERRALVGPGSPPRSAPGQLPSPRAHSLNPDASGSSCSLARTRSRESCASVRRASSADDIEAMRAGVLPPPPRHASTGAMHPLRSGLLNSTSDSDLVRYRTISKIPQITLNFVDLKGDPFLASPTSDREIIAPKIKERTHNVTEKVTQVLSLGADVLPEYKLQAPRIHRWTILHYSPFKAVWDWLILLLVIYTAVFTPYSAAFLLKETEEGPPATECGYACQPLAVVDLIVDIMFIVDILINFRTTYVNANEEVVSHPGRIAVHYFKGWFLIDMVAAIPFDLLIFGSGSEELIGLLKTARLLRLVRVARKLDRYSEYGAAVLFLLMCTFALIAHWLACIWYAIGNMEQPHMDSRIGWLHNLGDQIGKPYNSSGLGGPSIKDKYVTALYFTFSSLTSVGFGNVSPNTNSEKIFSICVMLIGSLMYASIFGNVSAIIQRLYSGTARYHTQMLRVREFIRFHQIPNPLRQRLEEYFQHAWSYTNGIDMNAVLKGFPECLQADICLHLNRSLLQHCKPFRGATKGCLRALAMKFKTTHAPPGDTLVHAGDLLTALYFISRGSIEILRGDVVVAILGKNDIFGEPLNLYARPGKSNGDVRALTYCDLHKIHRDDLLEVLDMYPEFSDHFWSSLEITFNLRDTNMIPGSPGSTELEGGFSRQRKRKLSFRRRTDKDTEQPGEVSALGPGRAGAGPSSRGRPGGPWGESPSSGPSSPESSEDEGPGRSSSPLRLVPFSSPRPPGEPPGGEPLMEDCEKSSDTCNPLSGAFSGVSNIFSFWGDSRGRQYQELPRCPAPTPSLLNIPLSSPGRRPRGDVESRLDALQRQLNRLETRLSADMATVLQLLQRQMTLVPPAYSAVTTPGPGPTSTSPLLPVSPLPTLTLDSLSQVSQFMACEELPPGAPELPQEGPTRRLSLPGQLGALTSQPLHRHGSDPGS
Chain of C-C chemokine receptor type 2 (P41597 whole entry): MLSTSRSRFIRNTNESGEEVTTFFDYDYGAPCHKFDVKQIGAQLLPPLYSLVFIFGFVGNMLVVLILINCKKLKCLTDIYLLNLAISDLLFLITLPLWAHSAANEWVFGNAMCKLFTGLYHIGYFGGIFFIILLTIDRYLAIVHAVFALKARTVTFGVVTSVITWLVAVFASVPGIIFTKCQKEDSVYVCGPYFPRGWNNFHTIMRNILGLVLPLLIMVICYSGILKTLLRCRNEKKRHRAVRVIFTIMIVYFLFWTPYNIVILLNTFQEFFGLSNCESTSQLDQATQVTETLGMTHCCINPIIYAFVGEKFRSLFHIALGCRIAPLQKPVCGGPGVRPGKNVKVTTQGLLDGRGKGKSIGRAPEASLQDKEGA
Chain of hERG (KCNH2) (Q12809 whole entry): as the sequence (Q12809 whole entry) above

As usually defined, the IC50 is the concentration that gives 50% inhibition. Low readings indicate greater potency, high ones weaker potency. For `CCOC(=O)[C@H]1CC[C@@H](N2CC(NC(=O)CNc3noc4ccc(C(F)(F)F)cc34)C2)CC1`, in data set [1], the 50% inhibitory concentration (IC50) turned out to be 29 nM.

Take `O=C(CNc1n[nH]c2ccc(C(F)(F)F)cc12)NC1CN([C@H]2CC[C@@H](n3ccccc3=O)CC2)C1`: in data set [1], the half-maximal inhibitory concentration (IC50) came out at 63 nM.

What is called inhibition is the drop in the measured response relative to a control, in per cent. Read a low inhibition as little suppression. Regarding `Cc1ccc([C@H]2CC[C@@H](N3CC(NC(=O)CNc4n[nH]c5ccc(C(F)(F)F)cc45)C3)CC2)cn1`, the 50% inhibitory concentration (IC50) in data set [1] is 6 nM; in data set [2], 27000 nM. Moreover, on hERG (KCNH2), the inhibition at 5 min, 3 µM was determined as 23%.

Consider `O=C(CNc1n[nH]c2ccc(C(F)(F)F)cc12)NC1CN([C@H]2CC[C@@H](O)CC2)C1`, for which the IC50 in data set [1] turned out to be 530 nM; in data set [2], 30000 nM.

Take `CCOC(=O)[C@H]1CC[C@@H](N2CC(NC(=O)CNc3nn(C)c4ccc(C(F)(F)F)cc34)C2)CC1`: the IC50 in data set [1] is 13 nM; in data set [2] it was 8000 nM.

On to `CCOC(=O)[C@H]1CC[C@@H](N2CC(NC(=O)CNc3n[nH]c4ccc(C(F)(F)F)cc34)C2)CC1`, for which the IC50 in data set [1] was found to be 27 nM; in data set [2] it was 9100 nM.

`O=C(CNc1n[nH]c2ccc(C(F)(F)F)cc12)NC1CN([C@H]2CC[C@@H](c3ccc4c(c3)OCO4)CC2)C1` registered an IC50 in data set [1] of 6 nM.

Take `Cn1nc(NCC(=O)NC2CN([C@H]3CC[C@@H](c4ncco4)CC3)C2)c2cc(C(F)(F)F)ccc21`: the IC50 in data set [1] amounted to 480 nM.

Regarding `O=C(CNc1n[nH]c2ccc(C(F)(F)F)cc12)NC1CN([C@H]2CC[C@@H](c3ccccc3)CC2)C1` (stereo in doubt; 5), the 50% inhibitory concentration (IC50) in data set [1] (thp-1) was determined as 12 nM.

Turning to `O=C(CNc1noc2ccc(C(F)(F)F)cc12)NC1CN([C@H]2CC[C@@H](c3ccc4c(c3)OCO4)CC2)C1`, the IC50 in data set [1] was found to be 36 nM; in data set [2] it was 1900 nM.

As for `CCOC(=O)[C@H]1CC[C@@H](N2CC(NC(=O)CNc3nn(CC(F)(F)F)c4ccc(C(F)(F)F)cc34)C2)CC1`, the IC50 in data set [1] worked out at 230 nM; in data set [2], 2500 nM.

Compound `CS(=O)(=O)N[C@H]1CC[C@@H](N2CC(NC(=O)CNc3n[nH]c4ccc(C(F)(F)F)cc34)C2)CC1` had a half-maximal inhibitory concentration (IC50) in data set [1] of 2080 nM.

The compound `O=C(Cn1[nH]c2ccc(C(F)(F)F)cc2c1=O)NC1CN([C@H]2CC[C@@H](c3ccccc3)CC2)C1` showed a concentration for half-maximal inhibition (IC50) in data set [1] of 5400 nM.

For the compound `Cn1nc(NCC(=O)NC2CN([C@H]3CC[C@@H](C4CCCCC4)CC3)C2)c2cc(C(F)(F)F)ccc21`, in data set [1], the IC50 is 120 nM.

As to `Cn1nc(NCC(=O)NC2CN([C@H]3CC[C@@H](CO)CC3)C2)c2cc(C(F)(F)F)ccc21`, the IC50 in data set [1] came out at 44 nM.

On to `Cn1nc(NCC(=O)NC2CN([C@H]3CC[C@@H](C(=O)O)CC3)C2)c2cc(C(F)(F)F)ccc21`, for which the 50% inhibitory concentration (IC50) in data set [1] came out at 2600 nM; in data set [2], 25000 nM.

Turning to `CCOC(=O)[C@H]1CC[C@@H](N2CC(NC(=O)CNc3nn(C4CCCC4)c4ccc(C(F)(F)F)cc34)C2)CC1`, the IC50 in data set [1] turned out to be 650 nM; in data set [2] it was 4100 nM.

In turn, `Cn1nc(NCC(=O)NC2CN([C@H]3CC[C@@H](C#N)CC3)C2)c2cc(C(F)(F)F)ccc21` displayed an IC50 in data set [1] of 330 nM.

On to `Cn1nc(NCC(=O)NC2CN([C@H]3CC[C@@H](c4ccc5c(c4)OCO5)CC3)C2)c2cc(C(F)(F)F)ccc21`, for which the 50% inhibitory concentration (IC50) in data set [1] amounted to 13 nM.

With `CCOC(=O)[C@H]1CC[C@@H](N2CC(NC(=O)CNc3nn(S(C)(=O)=O)c4ccc(C(F)(F)F)cc34)C2)CC1`, the IC50 in data set [1] is 920 nM; in data set [2] it was 25000 nM.

For the compound `O=C(CNc1n[nH]c2ccc(C(F)(F)F)cc12)NC1CN([C@H]2CC[C@@H](c3ccccc3)CC2)C1` (stereo in doubt; 13a), the half-maximal inhibitory concentration (IC50) worked out at 12 nM in data set [1] and 1200 nM in data set [2].

Regarding `Cn1nc(NCC(=O)NC2CN([C@H]3CC[C@@H](C(N)=O)CC3)C2)c2cc(C(F)(F)F)ccc21`, the IC50 came to 510 nM in data set [1] and 32000 nM in data set [2].

Turning to `CCOC[C@H]1CC[C@@H](N2CC(NC(=O)CNc3nn(C)c4ccc(C(F)(F)F)cc34)C2)CC1`, the concentration for half-maximal inhibition (IC50) is 27 nM in data set [1] and 5600 nM in data set [2].

The compound `CC(C)(C)NC(=O)n1nc(NCC(=O)NC2CN([C@H]3CC[C@@H](c4ccc5c(c4)OCO5)CC3)C2)c2cc(C(F)(F)F)ccc21` registered a half-maximal inhibitory concentration (IC50) in data set [1] of 55 nM.

The compound `C=CCn1nc(NCC(=O)NC2CN([C@H]3CC[C@@H](C(=O)OCC)CC3)C2)c2cc(C(F)(F)F)ccc21` had a concentration for half-maximal inhibition (IC50) in data set [1] of 22 nM.

As to `O=C(CSc1n[nH]c2ccc(C(F)(F)F)cc12)NC1CN([C@H]2CC[C@@H](c3ccccc3)CC2)C1`, in data set [1], the IC50 is 290 nM.

`O=C(COc1n[nH]c2ccc(C(F)(F)F)cc12)NC1CN([C@H]2CC[C@@H](c3ccccc3)CC2)C1` showed an IC50 in data set [1] of 510 nM.

One may read the Papp A→B as the apparent permeability from the apical to the basolateral side of a cell layer. The term Papp B→A denotes the apparent permeability from the basolateral to the apical side of a cell layer. What is called efflux ratio is the permeability from basolateral to apical divided by that in the opposite direction, in the common usage. Turning to `NC(=O)n1nc(NCC(=O)NC2CN([C@H]3CC[C@@H](c4ccc5c(c4)OCO5)CC3)C2)c2cc(C(F)(F)F)ccc21`, the concentration for half-maximal inhibition (IC50) in data set [1] amounted to 82 nM; in data set [2], 12000 nM. In addition, the solubility kinetic in data set [3] was found to be 3.5 µM (≈ 1.95 µg/mL). The Papp A→B in data set [4] worked out at 0.15 ×10⁻⁶ cm/s. The basolateral-to-apical permeability (Papp B→A) in data set [5] was determined as 2.44 ×10⁻⁶ cm/s. In addition, the efflux ratio in data set [6] was found to be 16.2.

With `COc1ccc([C@]2(O)CC[C@H](N3CC(NC(=O)CNc4n[nH]c5ccc(C(F)(F)F)cc45)C3)CC2)cn1`, the IC50 in data set [1] was 16 nM; in data set [2] it was 32000 nM. The compound also registered an inhibition at 5 min, 3 µM against hERG (KCNH2) of 30%.

Consider `CCOC(=O)[C@H]1CC[C@@H](N2CC(NC(=O)CNc3nn(C(N)=O)c4ccc(C(F)(F)F)cc34)C2)CC1`, for which the results for the IC50 in data set [1] and in data set [2] were 56 nM and 20000 nM, respectively. The solubility kinetic in data set [3] worked out at 8.9 µM (≈ 4.54 µg/mL). In addition, the Papp A→B in data set [4] turned out to be 0.32 ×10⁻⁶ cm/s. For the same compound, the basolateral-to-apical permeability (Papp B→A) in data set [5] was determined as 3.5 ×10⁻⁶ cm/s. For the same compound, in data set [6], the efflux ratio worked out at 10.9.

Take `N[C@H]1CC[C@@H](N2CC(NC(=O)CNc3n[nH]c4ccc(C(F)(F)F)cc34)C2)CC1`: the half-maximal inhibitory concentration (IC50) was more than 25000 nM in data set [1] and more than 50000 nM in data set [2].

Regarding `NC(=O)Cc1ccc([C@H]2CC[C@@H](N3CC(NC(=O)CNc4n[nH]c5ccc(C(F)(F)F)cc45)C3)CC2)cc1`, the IC50 was determined as 12 nM in data set [1] and 9500 nM in data set [2].

On to `CC(C)[C@H]1CC[C@@H](N2CC(NC(=O)CNc3n[nH]c4ccc(C(F)(F)F)cc34)C2)CC1`, for which the IC50 in data set [1] worked out at 370 nM; in data set [2], 6200 nM.

`C#C[C@H]1CC[C@@H](N2CC(NC(=O)CNc3nn(C)c4ccc(C(F)(F)F)cc34)C2)CC1`: the IC50 is 10000 nM in data set [1] and more than 50000 nM in data set [2].

`O=C(CNc1nn(CCO)c2ccc(C(F)(F)F)cc12)NC1CN([C@H]2CC[C@@H](c3nccs3)CC2)C1`: the 50% inhibitory concentration (IC50) in data set [1] amounted to 29 nM.

Source of the values: ChEMBL document CHEMBL1833932, “Design, synthesis and SAR of indazole and benzoisoxazole containing 4-azetidinyl-1-aryl-cyclohexanes as CCR2 antagonists” (Bioorg Med Chem Lett, 2011).
